Results from article PMC3674352 (Cell Death & Disease, 2013).

Legend:
Assay type in all cases: cell-based
[1] = biological target: Bcl-2 (Homo sapiens, UniProt P10415); assay: growth of yeast co-expressing Bax and Bcl-2
[2] = biological target: T1, Bcl-xL (Homo sapiens, UniProt Q07817); assay: growth of yeast co-expressing Bax and Bcl-xL
[3] = biological target: T1, Bcl-xL; assay: growth and ATP content of yeast co-expressing Bax and Bcl-xL

T1 sequence (Q07812 whole entry): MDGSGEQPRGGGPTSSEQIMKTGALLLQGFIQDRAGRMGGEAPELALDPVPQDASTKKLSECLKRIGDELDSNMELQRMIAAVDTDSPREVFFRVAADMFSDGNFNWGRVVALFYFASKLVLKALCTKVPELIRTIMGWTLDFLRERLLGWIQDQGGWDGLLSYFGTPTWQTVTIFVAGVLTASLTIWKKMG
T1 sequence (Q07817 whole entry): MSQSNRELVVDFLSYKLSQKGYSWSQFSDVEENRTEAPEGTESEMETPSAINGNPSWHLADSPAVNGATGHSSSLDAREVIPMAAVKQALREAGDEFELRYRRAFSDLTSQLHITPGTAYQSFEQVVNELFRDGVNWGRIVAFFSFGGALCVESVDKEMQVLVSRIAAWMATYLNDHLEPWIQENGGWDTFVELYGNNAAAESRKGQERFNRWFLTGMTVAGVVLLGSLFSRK
Sequence of Bcl-2 (Q07812 whole entry): as the sequence (Q07812 whole entry) above
Sequence of Bcl-2 (P10415 whole entry): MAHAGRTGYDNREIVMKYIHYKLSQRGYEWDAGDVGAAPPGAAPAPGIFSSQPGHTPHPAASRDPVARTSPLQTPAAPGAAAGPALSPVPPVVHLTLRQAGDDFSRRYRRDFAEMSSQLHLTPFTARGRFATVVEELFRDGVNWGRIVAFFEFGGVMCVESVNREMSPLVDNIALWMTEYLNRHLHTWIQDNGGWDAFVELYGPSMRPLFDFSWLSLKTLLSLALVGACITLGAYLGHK

CC1(C)CCC(c2ccc(Cl)cc2)=C(CN2CCN(c3ccc(C(=O)NS(=O)(=O)c4ccc(N[C@H](CCN5CCOCC5)CSc5ccccc5)c(S(=O)(=O)C(F)(F)F)c4)cc3)CC2)C1 [ABT-263]
IC50 [1]: ~ just over 1 μM
IC50 [2]: ~ just under 1 μM

CN(C)CC[C@H](CSc1ccccc1)Nc1ccc(S(=O)(=O)NC(=O)c2ccc(N3CCN(Cc4ccccc4-c4ccc(Cl)cc4)CC3)cc2)cc1[N+](=O)[O-] [ABT-737]
IC50 [3]: ~ just under 1 μM
